Measurements: patent publication US20180346446A1, “IRE1 SMALL MOLECULE INHIBITORS” (QUENTIS THERAPEUTICS, INC., priority 2017, published 2018)

Assays:
IRE1a [1] = target: T1, IRE1a (Homo sapiens, UniProt O75460); experiment: IRE1a Endoribonuclease Nanoluciferase Assay (XBP1 luciferase reporter in 293T cells); format: cell-based; details: 293T cells transfected with XBP1 luciferase reporter, ER stressors +/- inhibitors
Procedure: Compounds disclosed herein were assessed for disruption of IRE1 signaling using a IRE1a Endoribonuclease Nanoluciferase Assay. Briefly, 2.5×10^6 293T cells were seeded in a 10 cm^2 tissue culture plate. About 24 hours later, the cells were transfected with Effectene. In a 15 mL Tube, the following was added: 2 ug XBP1 luciferase reporter plasmid (PGK-Luc2-P2A-XBP1u-Nanoluciferase-PEST); 300 ul EC buffer; and 16 ul Enhancer, followed by incubation at room temp for 5 minutes. Next, 60 ul Effectene (Qiagen 301427) was added, followed by incubation at room temperature for 10 minutes. 2.6 mL cDMEM media was added. Old media was aspirated from the cells, followed by addition of 7 mL fresh media. Full transfection mixture was added dropwise to cells. Cells were incubated for 6 hours, followed by trypsinization, centrifugation and resuspension in 11 mL media. 100 uL of cells were plated per a well in a 96 well plate. A day later, ER stressors of choice +/− inhibitors were added. To harvest, media was aspirated from cells completely, then 50 uL 1× passive lysis buffer (Promega: E1941) was added per well and put on shaker (300 rpm) for 30 minutes at room temperature. Cells were centrifuged, and 15 uL sample per well was added to a new, opaque white 384 well plate (Corning 3570). 15 uL OneGlo (nanoluciferase kit, Promega N1630) was added. Plates were spun down, placed on shaker (300 rpm) for 10 minutes. Plates were read on luminometer, 1000 ms integration time per well. 15 uL Stop and Glo (nanoluciferase kit) was added. Plates were spun down, placed on shaker (300 rpm) for 10 minutes. Plates were read on luminometer, 1000 ms second integration time per well. Recordings are provided below in Table 4.

293T cells = experiment: Growth assay (cytotoxicity); format: cell-based; details: 2 day incubation
Procedure: A growth assay was performed to evaluate the compounds disclosed herein for cytotoxicity. Briefly, 5,000,000 293T cells were resuspended in 18 mL of cDMEM for a final concentration of 277,777 cells/mL. […] In a separate 96 well dilution plate, 199 uL cDMEM and 1 uL of DMSO or any one of the compounds disclosed herein (shown as Test Compound 1, 2, 3, 4, 5, or 6 below) were added to wells A4, A8, C4, C8, E4, E8, G4, and G8. 133.3 uL cDMEM was added to wells 1, 2, 3, 5, 6, and 7 in rows A, C, E and G of the dilution plate. Compounds were serially diluted leftwards in threefold dilutions (66.7 uL into 133.3 uL cDMEM). 20 uL of each dilution was transferred in duplicate (duplicates in vertical paired wells) to the cells plated in the 96-well plate shown in Table 5, to the total concentrations shown below. 200 uL cDMEM was added to media wells (wells G5-H8). The plate was then placed in a humidified chamber for a 2 day incubation, and then photographed (media was more yellow in wells with potent cell growth). Absorbance was then measured at about […] (lower for more acidic media) and about […] (higher for more acidic media).

IRE1a [2] = target: T1, IRE1a; experiment: In vitro FRET assay (XBP1 RNA probe cleavage by IRE1a); format: biochemical; design: purchased SignalChem; details: 2 nM IRE1a protein
Procedure: In vitro FRET assay was performed to evaluate the ability of select compounds to inhibit IRE1, the results of which are summarized in Table 3. To perform the in vitro FRET assay, 1× complete assay buffer (CAB; […], 50 mM sodium citrate pH 7.15, ImM magnesium acetate, 0.02% tween 20) was used to dilute SignalChem IRE1a protein to a final concentration of 2 nM. Selected compounds were serially diluted with DMSO in a non-binding black 384-well plate for a total of 15 ul in each well. 2 ul of the serially diluted compound or DMSO control were then added to new wells containing 98 ul of 1×CAB, for a total volume of 100 ul, 10 ul of which were then transferred to wells of a new plate. 5 ul of the diluted IRE1a was then added to each well. 5 ul of a […] XBP1 RNA probe was then added to each well. Fluorescence was then read over 30 minutes in kinetic mode (485/515 nm).
Two RNA probes were used, XBP1 wildtype (SEQ ID NO: 2) which is able to be spliced by active IRE1a or XBP1 mutant (SEQ ID NO: 3) which is unable to be spliced. Each probe contained a 5′ 6-FAM modification and a 3′ IOWA Black FQ modification. […]

T1 sequence (O75460 19-977): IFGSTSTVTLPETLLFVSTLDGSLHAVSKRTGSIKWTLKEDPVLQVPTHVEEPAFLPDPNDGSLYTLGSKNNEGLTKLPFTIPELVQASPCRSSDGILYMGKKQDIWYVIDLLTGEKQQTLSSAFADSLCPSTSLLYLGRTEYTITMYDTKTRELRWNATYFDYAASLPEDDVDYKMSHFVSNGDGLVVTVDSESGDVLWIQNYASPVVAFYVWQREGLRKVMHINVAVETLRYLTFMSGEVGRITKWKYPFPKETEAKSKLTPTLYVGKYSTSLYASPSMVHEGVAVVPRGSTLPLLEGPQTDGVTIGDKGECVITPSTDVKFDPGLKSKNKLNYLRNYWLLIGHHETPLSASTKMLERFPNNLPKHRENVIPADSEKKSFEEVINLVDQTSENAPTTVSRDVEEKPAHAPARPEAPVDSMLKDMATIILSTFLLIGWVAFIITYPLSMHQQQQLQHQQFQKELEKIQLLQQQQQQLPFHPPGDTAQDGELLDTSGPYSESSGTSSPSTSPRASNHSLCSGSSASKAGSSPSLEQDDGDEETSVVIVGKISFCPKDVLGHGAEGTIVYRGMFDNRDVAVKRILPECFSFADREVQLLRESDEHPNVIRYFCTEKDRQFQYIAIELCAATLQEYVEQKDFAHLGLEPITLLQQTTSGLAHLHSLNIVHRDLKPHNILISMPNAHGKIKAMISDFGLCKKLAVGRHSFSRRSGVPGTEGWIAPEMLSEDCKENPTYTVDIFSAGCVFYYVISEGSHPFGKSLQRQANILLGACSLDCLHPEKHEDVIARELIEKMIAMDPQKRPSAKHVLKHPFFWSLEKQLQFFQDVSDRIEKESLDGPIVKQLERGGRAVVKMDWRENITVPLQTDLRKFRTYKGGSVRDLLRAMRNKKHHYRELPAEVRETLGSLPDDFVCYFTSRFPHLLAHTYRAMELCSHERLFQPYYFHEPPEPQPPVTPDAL

Structure (SMILES)	EC50 (IRE1a [1]) [nM]	% Growth at 0.185 uM (293T cells)	% Growth at 0.5556 uM (293T cells)	% Growth at 1.667 uM (293T cells)	% Growth at 5 uM (293T cells)	IC50 (IRE1a [2]) [nM]
CCc1cc(-c2ccc(NS(=O)(=O)c3ccccc3Cl)c(C)c2C)cc2cnc(N[C@H]3CC[C@H](N)CC3)nc12.O=CO [22; Formic Acid]	> 100	D (D: >75% to ≤100%)	D (D: >75% to ≤100%)	D (D: >75% to ≤100%)	A (A: ≤25%)	5 to 50
CCc1cc(-c2nnc(NS(=O)(=O)c3ccccc3Cl)cc2C)cc2cnc(N[C@H]3CC[C@H](N)CC3)nc12.O=CO [67; Formic Acid]	5 to 50	D (D: >75% to ≤100%)	D (D: >75% to ≤100%)	C (C: >50% to ≤75%)	C (C: >50% to ≤75%)	≤ 5
CCc1cc(-c2ncc(NS(=O)(=O)c3ccccc3Cl)cc2F)cc2cnc(N[C@H]3CC[C@H](N)CC3)nc12.O=CO [52; Formic Acid]	≤ 5	D (D: >75% to ≤100%)	D (D: >75% to ≤100%)	D (D: >75% to ≤100%)	C (C: >50% to ≤75%)	≤ 5
CCc1cc(-c2ncc(NS(=O)(=O)c3ccccc3Cl)cn2)cc2cnc(N[C@H]3CC[C@H](N)CC3)nc12.O=CO [33; Formic Acid]	≤ 5	D (D: >75% to ≤100%)	D (D: >75% to ≤100%)	D (D: >75% to ≤100%)	C (C: >50% to ≤75%)	≤ 5
CCc1cc(-c2ccc(NS(=O)(=O)c3ccccc3Cl)nc2)cc2cnc(N[C@H]3CC[C@H](N)CC3)nc12.O=CO [27; Formic Acid]	≤ 5	D (D: >75% to ≤100%)	D (D: >75% to ≤100%)	C (C: >50% to ≤75%)	B (B: >25% to ≤50%)	≤ 5
CCc1cc(-c2cc(NS(=O)(=O)c3ccccc3Cl)n[nH]2)cc2cnc(N[C@H]3CC[C@H](N)CC3)nc12.O=CO [29; Formic Acid]	> 100	D (D: >75% to ≤100%)	D (D: >75% to ≤100%)	D (D: >75% to ≤100%)	D (D: >75% to ≤100%)	≤ 5
CCc1cc(NS(=O)(=O)c2ccccc2Cl)ccc1-c1cc(CC)c2nc(N[C@H]3CC[C@H](N)CC3)ncc2c1.O=CO [34; Formic Acid]	5 to 50	D (D: >75% to ≤100%)	D (D: >75% to ≤100%)	D (D: >75% to ≤100%)	A (A: ≤25%)	≤ 5
CCc1cc(-c2ncc(NS(=O)(=O)c3ccccc3Cl)cc2C)cc2cnc(N[C@H]3CC[C@H](N)CC3)nc12.O=CO [20; Formic Acid]	50 to 100	D (D: >75% to ≤100%)	D (D: >75% to ≤100%)	D (D: >75% to ≤100%)	C (C: >50% to ≤75%)	≤ 5
CCc1cc(-c2cnc(NS(=O)(=O)c3ccccc3Cl)cn2)cc2cnc(N[C@H]3CC[C@H](N)CC3)nc12.O=CO [25; Formic Acid]	≤ 5	D (D: >75% to ≤100%)	D (D: >75% to ≤100%)	D (D: >75% to ≤100%)	D (D: >75% to ≤100%)	≤ 5
CCc1cc(-c2ccc(NS(=O)(=O)c3ccccc3Cl)cc2F)cc2cnc(N[C@H]3CC[C@H](N)CC3)nc12.O=CO [35; Formic Acid]	≤ 5	D (D: >75% to ≤100%)	D (D: >75% to ≤100%)	C (C: >50% to ≤75%)	B (B: >25% to ≤50%)	≤ 5
CCc1cc(-c2cnc(NS(=O)(=O)c3ccccc3Cl)nc2OC)cc2cnc(N[C@H]3CC[C@H](N)CC3)nc12.O=CO [46; Formic Acid]	≤ 5	D (D: >75% to ≤100%)	D (D: >75% to ≤100%)	D (D: >75% to ≤100%)	D (D: >75% to ≤100%)	≤ 5
CCc1cc(-c2ccc(NS(=O)(=O)c3ccccc3Cl)nn2)cc2cnc(N[C@H]3CC[C@H](N)CC3)nc12.O=CO [32; Formic Acid]	≤ 5	D (D: >75% to ≤100%)	D (D: >75% to ≤100%)	C (C: >50% to ≤75%)	B (B: >25% to ≤50%)	≤ 5
N[C@H]1CC[C@H](Nc2ncc3cc(-c4c(F)cc(NS(=O)(=O)c5ccccc5Cl)cc4F)ccc3n2)CC1 [62; Formic Acid]	5 to 50	–	–	–	–	≤ 5
CCc1cc(-c2cc(F)c(NS(=O)(=O)c3ccccc3Cl)cc2OC)cc2cnc(N[C@H]3CC[C@H](NC)CC3)nc12 [121; Formic Acid]	≤ 5	–	–	–	–	≤ 5
COc1nc(NS(=O)(=O)c2ccccc2Cl)ccc1-c1cc(C)c2nc(N[C@H]3CC[C@@H](N)CC3)ncc2c1 [138; Formic Acid]	50 to 100	–	–	–	–	≤ 5
CCc1cc(-c2ccc(NS(=O)(=O)c3ccccc3Cl)c(F)c2)cc2cnc(N[C@H]3CC[C@H](NC(=O)[C@@H](N)C(C)C)CC3)nc12 [58; Formic Acid]	≤ 5	–	–	–	–	5 to 50
N[C@H]1CC2C[C@@H](Nc3ncc4cc(-c5ccc(NS(=O)(=O)c6ccccc6Cl)c(F)c5)ccc4n3)CC2C1 (stereo partly drawn) [85; Formic Acid]	> 100	–	–	–	–	≤ 5
Cc1cc(NS(=O)(=O)c2ccccc2Cl)ccc1-c1ccc2nc(N[C@H]3CC[C@H](N)CC3)ncc2c1 [Compound 2, N-(4-(2-(((1r,4r)-4-aminocyclohexyl)amino)quinazolin-6-yl)-3-methylphenyl)-2-chlorobenzenesulfonamide]	> 100	–	–	–	–	≤ 5
COc1nc(NS(=O)(=O)c2ccccc2Cl)ccc1-c1cc(C(C)(F)F)c2nc(N[C@H]3CC[C@H](N)CC3)ncc2c1 [123; Formic Acid]	≤ 5	–	–	–	–	≤ 5
CCc1cc(-c2ccc(NS(=O)(=O)c3ccccc3Cl)c(F)c2)cc2cnc(N[C@H]3CC[C@H](NC(C)=O)CC3)nc12 [59; Formic Acid]	50 to 100	–	–	–	–	5 to 50
CCc1cc(-c2cnc(NS(=O)(=O)c3ccccc3Cl)cc2OC)cc2cnc(N[C@H]3CC[C@H](N)CC3)nc12 [92; Formic Acid]	> 100	–	–	–	–	≤ 5
COc1nc(NS(=O)(=O)c2ccccc2Cl)ccc1-c1cc(C)c2nc(N[C@H]3CC[C@H](N)CC3)ncc2c1 [115; Formic Acid]	≤ 5	–	–	–	–	≤ 5
O=S(=O)(Nc1ccc(-c2ccc3nc(N[C@H]4CCCNC4)ncc3c2)cc1F)c1ccccc1Cl [76; Formic Acid]	5 to 50	–	–	–	–	≤ 5
CCc1cc(-c2ccc(NS(=O)(=O)c3ccccc3Cl)c(F)c2)cc2cnc(N[C@H]3CCCNC3)nc12 [73; Formic Acid]	≤ 5	–	–	–	–	≤ 5
